Test results as given in ChEMBL document CHEMBL1201862, “PubChem BioAssay data set” (2004).
Activity calls are given as the source filed them.

What was measured:
[1] = molecular target: Neurotensin receptor type 1 (Homo sapiens, UniProt P30989); format: functional;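 further: Image-based confirmatory dose-response assay measuring agonist activity at NTR1; NTR1-expressing U2OS osteosarcoma cells imaged for beta-arrestin GFP spot formation; agonist potency where compounds increase beta-arrestin recruitment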
[2] = molecular target: T1, Heat shock factor protein 1 (Mus musculus, UniProt P38532); assay: HSF1 potentiators in luciferase reporter cells, confirmation, cell-based, NIH3T3, luminescence, dose retest (AID 435004); format: functional;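 further: stress induced by proteasome inhibitor MG132 added 30 min after compound; luciferase reporter driven by HSF1 response element in NIH3T3 cells; actives raise luminescence as potentiators of the MG132 stress response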
T1 sequence (P38532 whole entry): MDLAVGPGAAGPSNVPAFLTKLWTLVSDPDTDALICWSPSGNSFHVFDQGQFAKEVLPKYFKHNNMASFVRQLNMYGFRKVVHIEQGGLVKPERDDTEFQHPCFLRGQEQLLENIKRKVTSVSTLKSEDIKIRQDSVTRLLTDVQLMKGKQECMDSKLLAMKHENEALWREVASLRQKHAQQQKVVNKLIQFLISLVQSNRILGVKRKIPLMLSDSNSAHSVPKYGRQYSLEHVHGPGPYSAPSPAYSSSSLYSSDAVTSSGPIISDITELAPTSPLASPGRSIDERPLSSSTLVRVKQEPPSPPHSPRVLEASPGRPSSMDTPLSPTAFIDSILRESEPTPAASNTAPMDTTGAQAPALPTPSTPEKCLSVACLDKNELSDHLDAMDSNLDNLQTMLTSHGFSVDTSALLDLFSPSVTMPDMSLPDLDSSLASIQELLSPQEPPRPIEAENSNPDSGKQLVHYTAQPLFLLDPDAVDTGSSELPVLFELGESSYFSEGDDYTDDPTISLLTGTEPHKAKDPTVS

[3] = molecular target: T2, Neuropeptides B/W receptor type 1 (Homo sapiens, UniProt P48145); assay: Fluorescence-based dose response cell-based high throughput screening assay to identify antagonists of the G-protein coupled receptor 7 (GPR7). [Related pubchem assays: 1952 (Screening assay (GPR7 antagonists).), 1880 (Summary AID.)]; format: functional
T2 sequence (P48145 whole entry): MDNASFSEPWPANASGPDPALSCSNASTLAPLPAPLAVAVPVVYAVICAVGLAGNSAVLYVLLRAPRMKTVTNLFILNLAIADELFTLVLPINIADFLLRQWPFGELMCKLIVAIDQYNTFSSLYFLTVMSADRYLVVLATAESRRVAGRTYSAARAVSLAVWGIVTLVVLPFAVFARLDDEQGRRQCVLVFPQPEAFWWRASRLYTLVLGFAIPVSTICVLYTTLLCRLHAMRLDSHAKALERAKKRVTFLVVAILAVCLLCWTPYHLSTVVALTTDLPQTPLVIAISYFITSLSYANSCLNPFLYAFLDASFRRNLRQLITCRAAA

[4] = molecular target: T3, Melanin-concentrating hormone receptor 1 (Homo sapiens, UniProt Q99705); assay: Fluorescence-based counterscreen for antagonists of the G-protein coupled receptor 7 (GPR7): cell-based high throughput dose response assay to identify antagonists of the melanin-concentrating hormone receptor 1 (MCHR1).; format: functional
[5] = molecular target: Aspartyl aminopeptidase (Plasmodium falciparum 3D7, UniProt Q8I2J3)
[6] = molecular target: Procathepsin L (Homo sapiens, UniProt P07711)
[7] = molecular target: Intestinal-type alkaline phosphatase (Homo sapiens, UniProt P09923); assay: Dose Response confirmation of uHTS hits from a small molecule inhibitors of human intestinal alkaline phosphatase via a luminescent assay. [Related pubchem assays (depositor defined):AID2544, AID2574]; format: functional
[8] = molecular target: T4, Eukaryotic translation initiation factor 4H (Homo sapiens, UniProt Q15056); assay: eIF4H inhibition in translation initiation, SAR follow-up (AID 435011); format: functional
[9] = molecular target: T5, Polyadenylate-binding protein 1 (Homo sapiens, UniProt P11940); assay: PABP inhibition in translation initiation, SAR follow-up (AID 435018); format: functional
[10] = inhibitors of firefly luciferase expression or activity, dose response, H4 neuroglioma cells, luminescence (AID 1990); format: functional, cell-based
[11] = luciferase reporter signal reduction – luminescence, H4-C neuroglioblastoma cells, dose response (AID 2458); format: functional, cell-based;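 further: H4 neuroglioblastoma cells stably carrying a luciferase reporter gene fusion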
[12] = cells; format: functional, cell-based
[13] = Luminescence Cell-Based Dose Response HTS to Identify Inhibitors of 5'UTR Stem-Loop Driven Prion Protein mRNA Translation in H4 Neuroglioblastoma Cells. [Related pubchem assays: 1827 (Project Summary), 1813 (Primary HTS)]; format: functional
[14] = inhibitors of SNCA 5'UTR-driven translation, confirmation, luminescence, H4 neuroglioblastoma cells, dose confirmation (AID 2454); format: functional, cell-based;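 further: H4 neuroglioblastoma cells carrying an alpha-synuclein 5'UTR luciferase reporter; potency for inhibition of the luciferase signal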
[15] = molecular target: T6, Microphthalmia-associated transcription factor (Homo sapiens, UniProt O75030); assay: TRPM1 promoter luciferase signal decrease, dose response, MITF inhibitor project, cell-based, SK-MEL-5, cherry-picked, set 3 (AID 493073); format: functional
T6 sequence (O75030 whole entry): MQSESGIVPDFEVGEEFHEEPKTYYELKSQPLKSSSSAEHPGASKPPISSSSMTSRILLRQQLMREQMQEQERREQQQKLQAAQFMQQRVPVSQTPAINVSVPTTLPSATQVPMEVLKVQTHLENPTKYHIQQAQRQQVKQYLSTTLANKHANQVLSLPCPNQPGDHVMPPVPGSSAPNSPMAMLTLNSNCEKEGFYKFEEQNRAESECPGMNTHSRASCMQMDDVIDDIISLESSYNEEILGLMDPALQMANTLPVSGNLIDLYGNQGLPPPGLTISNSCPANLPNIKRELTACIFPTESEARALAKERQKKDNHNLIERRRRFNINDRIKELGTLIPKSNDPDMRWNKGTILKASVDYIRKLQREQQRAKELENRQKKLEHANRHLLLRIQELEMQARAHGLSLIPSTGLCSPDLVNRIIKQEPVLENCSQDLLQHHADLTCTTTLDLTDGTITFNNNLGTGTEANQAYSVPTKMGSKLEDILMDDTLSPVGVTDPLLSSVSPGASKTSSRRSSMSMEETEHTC

[16] = molecular target: T3, Melanin-concentrating hormone receptor 1; assay: Late-stage fluorescence-based counterscreen for antagonists of the G-protein coupled receptor 7 (GPR7): cell-based dose response assay to identify antagonists of the melanin-concentrating hormone receptor 1 (MCHR1). [Related pubchem assays (depositor defined):AID1861, AID1880, AID1952, AID2148, AID2251, AID2257, AID485339]; format: functional
[17] = molecular target: T2, Neuropeptides B/W receptor type 1; assay: GPR7 antagonist potency, late-stage follow-up, cell-based, fluorescence, dose response (AID 463251); format: functional
[18] = molecular target: T4, Eukaryotic translation initiation factor 4H; assay: human eIF4H binding inhibitors, primary screen, translation initiation inhibitor project, biochemical, uHTS, fluorescence polarization (AID 2012)
[19] = molecular target: T5, Polyadenylate-binding protein 1; assay: PABP poly(A) RNA binding inhibitors, primary screen, biochemical, fluorescence polarization, uHTS (AID 2014)
[20] = molecular target: T7, SUMO-activating enzyme (Homo sapiens, UniProt Q9UBT2); assay: SUMOylation inhibitor hit validation, confirmation, SUMOylation inhibitor project, biochemical, AlphaScreen (AID 2018); format: functional
[21] = molecular target: T7, SUMO-activating enzyme; assay: inhibitors of in vitro SUMOylation cascade, primary screen, biochemical, HTRF, uHTS (AID 2006); format: protein-complex assay
[22] = molecular target: Induced myeloid leukemia cell differentiation protein Mcl-1 (Homo sapiens, UniProt Q07820); format: functional
Induced myeloid leukemia cell differentiation protein Mcl-1, sequence (Q07820 whole entry): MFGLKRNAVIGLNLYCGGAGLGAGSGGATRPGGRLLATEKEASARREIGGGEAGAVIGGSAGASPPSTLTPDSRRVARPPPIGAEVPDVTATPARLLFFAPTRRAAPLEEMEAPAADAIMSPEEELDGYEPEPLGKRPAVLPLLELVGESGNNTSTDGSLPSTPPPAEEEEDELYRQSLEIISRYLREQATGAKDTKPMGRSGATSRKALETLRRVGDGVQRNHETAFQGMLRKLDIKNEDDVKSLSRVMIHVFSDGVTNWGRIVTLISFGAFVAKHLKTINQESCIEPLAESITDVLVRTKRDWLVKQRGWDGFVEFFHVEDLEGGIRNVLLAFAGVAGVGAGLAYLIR

T5 sequence (P11940 whole entry): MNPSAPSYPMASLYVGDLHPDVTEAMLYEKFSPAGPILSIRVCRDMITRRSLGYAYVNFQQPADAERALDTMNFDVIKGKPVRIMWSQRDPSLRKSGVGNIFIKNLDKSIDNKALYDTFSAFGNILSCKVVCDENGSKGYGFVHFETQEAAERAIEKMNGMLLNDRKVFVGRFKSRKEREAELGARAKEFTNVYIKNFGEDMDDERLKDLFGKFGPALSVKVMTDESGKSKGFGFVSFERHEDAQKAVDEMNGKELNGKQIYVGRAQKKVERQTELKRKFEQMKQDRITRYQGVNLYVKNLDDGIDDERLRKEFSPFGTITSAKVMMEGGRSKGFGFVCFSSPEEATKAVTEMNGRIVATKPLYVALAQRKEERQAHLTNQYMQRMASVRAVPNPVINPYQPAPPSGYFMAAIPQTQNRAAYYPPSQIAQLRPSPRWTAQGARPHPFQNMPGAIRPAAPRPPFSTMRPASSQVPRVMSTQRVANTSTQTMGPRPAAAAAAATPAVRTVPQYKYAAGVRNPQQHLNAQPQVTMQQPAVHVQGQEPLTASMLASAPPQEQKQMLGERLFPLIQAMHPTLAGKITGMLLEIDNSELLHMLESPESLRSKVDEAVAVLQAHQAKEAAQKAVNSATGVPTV
T7 sequence (Q9UBE0 whole entry): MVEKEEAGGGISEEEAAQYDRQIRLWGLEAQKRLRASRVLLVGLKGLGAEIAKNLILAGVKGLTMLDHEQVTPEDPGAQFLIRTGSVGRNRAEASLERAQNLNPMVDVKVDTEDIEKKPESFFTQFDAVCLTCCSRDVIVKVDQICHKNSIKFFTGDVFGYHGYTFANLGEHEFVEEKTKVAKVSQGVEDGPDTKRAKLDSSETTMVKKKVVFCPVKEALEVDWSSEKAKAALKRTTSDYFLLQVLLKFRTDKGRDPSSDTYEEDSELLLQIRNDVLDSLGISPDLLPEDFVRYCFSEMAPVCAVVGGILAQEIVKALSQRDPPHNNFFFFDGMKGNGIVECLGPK
T7 sequence (Q9UBT2 whole entry): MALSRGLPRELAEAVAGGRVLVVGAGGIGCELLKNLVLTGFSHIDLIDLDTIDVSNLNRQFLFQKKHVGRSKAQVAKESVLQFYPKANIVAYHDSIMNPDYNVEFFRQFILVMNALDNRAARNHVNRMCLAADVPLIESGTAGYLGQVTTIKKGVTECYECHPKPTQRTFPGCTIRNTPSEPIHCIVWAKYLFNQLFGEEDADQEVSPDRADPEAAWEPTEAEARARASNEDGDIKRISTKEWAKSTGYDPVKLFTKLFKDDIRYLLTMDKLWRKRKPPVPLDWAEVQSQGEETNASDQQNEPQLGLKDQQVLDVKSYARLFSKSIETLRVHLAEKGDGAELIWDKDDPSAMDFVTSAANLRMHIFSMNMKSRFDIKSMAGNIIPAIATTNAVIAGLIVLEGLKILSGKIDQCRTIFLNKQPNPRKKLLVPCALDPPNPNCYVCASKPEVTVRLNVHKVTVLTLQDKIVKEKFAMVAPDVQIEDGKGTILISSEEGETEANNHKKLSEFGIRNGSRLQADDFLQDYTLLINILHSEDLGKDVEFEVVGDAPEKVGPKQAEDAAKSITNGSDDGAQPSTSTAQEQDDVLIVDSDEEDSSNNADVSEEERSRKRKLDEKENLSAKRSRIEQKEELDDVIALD
T3 sequence (Q99705 whole entry): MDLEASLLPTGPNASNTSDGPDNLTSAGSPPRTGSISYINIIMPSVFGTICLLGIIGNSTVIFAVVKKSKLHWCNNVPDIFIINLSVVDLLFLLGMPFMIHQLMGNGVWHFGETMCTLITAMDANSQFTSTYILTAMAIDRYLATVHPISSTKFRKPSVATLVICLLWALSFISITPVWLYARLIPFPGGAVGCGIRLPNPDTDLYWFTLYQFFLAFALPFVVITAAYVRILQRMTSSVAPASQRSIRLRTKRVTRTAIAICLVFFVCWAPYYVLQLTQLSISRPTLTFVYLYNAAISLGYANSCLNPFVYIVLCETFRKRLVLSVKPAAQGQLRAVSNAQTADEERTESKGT
Procathepsin L, sequence (P07711 whole entry): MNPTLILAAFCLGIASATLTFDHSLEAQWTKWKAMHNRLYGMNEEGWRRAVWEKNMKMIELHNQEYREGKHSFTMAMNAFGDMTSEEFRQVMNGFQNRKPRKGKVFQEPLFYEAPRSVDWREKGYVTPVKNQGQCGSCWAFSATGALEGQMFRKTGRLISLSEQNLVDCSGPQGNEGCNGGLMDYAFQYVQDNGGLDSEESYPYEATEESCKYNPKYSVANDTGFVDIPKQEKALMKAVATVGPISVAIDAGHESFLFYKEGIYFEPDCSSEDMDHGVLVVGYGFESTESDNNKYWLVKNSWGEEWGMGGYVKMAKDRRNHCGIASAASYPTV
Neurotensin receptor type 1, sequence (P30989 whole entry): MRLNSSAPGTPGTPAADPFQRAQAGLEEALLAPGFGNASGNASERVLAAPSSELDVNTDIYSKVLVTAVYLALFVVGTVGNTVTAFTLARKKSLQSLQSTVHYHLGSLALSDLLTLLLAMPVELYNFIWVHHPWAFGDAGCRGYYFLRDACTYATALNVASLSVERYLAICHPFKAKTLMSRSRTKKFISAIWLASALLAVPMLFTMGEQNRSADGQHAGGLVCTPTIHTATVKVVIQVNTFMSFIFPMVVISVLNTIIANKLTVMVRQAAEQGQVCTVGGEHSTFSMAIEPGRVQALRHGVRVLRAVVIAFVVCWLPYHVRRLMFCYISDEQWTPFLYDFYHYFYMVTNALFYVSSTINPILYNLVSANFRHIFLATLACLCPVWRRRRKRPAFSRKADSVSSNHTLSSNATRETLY
Intestinal-type alkaline phosphatase, sequence (P09923 whole entry): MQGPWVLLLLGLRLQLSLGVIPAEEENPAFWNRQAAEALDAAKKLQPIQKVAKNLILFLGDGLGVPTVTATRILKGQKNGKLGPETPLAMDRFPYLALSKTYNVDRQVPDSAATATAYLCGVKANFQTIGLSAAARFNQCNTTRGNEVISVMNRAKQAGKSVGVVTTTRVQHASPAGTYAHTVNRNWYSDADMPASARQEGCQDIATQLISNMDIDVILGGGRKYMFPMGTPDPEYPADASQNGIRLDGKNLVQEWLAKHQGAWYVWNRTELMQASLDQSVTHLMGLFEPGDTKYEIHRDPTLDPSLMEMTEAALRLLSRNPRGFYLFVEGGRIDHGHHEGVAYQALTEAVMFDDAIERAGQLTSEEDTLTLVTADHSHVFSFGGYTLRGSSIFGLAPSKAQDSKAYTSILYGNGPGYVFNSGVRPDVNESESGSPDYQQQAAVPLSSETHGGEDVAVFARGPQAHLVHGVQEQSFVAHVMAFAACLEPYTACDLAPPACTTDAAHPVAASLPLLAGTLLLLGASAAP
Aspartyl aminopeptidase, sequence (Q8I2J3 whole entry): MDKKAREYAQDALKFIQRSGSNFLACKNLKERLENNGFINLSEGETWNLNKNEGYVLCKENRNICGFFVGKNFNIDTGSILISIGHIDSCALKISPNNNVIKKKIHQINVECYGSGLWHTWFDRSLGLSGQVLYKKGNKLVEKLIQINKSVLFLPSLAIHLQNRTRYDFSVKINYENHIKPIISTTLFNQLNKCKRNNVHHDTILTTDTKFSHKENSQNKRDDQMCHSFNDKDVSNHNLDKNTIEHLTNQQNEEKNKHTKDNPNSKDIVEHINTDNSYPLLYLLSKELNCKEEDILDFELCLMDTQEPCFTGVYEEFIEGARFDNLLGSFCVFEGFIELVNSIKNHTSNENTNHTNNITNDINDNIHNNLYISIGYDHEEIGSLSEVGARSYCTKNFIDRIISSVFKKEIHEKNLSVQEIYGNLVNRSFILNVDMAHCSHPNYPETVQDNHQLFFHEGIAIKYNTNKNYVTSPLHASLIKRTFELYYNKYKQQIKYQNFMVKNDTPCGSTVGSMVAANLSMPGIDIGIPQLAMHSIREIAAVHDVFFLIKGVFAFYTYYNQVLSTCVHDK

For `CCOc1cc(/C=C2/C(=O)ON=C2C)ccc1OCc1ccc(F)cc1`, the EC50 [1] was 16.2 µM (active) and the EC50 [2] was 8.12 µM (active).
In the case of `Cc1ccccc1N(CC(=O)NC1CCCCC1)C(=O)CCCC(=O)Nc1ccccn1`, the IC50 [3] is reported as > 43.8 µM (not active) and the IC50 [4] is reported as > 43.8 µM (not active).
For `CCc1ccccc1N=C(S)Nn1cnnc1`, the IC50 [5] was 3.03 µM (active) and the IC50 [6] was > 59.6 µM (not active).
With `CC(C)(C)NN/C=C1\C(=O)N(c2ccc(Cl)cn2)C(=O)c2ccccc21` the IC50 [7] was > 100 µM (inactive).
For `CCOC(=O)Cc1c(Sc2ccccc2)c2cc(C)ccc2n1C`, the IC50 [8] was > 100 µM (inactive) and the IC50 [9] was > 100 µM (inactive).
With `Cc1ccc(C(=O)c2cccc(N)c2)cc1C` the EC50 [10] was < 0.1 µM (active), the EC50 [11] was 1.11 µM (active) and the EC50 [12] was 2.86 µM (active). The EC50 [13] was < 0.1 µM (active), the EC50 [14] was 1.46 µM (active) and the AC50 [15] was 3.62 µM (active).
In the case of `O=C(C1CCCCN1Cc1ccc(Cl)cc1)N1CCN(c2ccc([N+](=O)[O-])cc2)CC1` (configuration not stated), the IC50 [16] is reported as 1.8 µM (active) and the IC50 [17] is reported as 1.6 µM (active).
For `Cc1ccc(OCC(=O)N/N=C/C=C/c2ccco2)cc1`, the IC50 [18] was 15.6 µM (active) and the IC50 [19] was 45.5 µM (active).
In the case of `NC(=S)n1nc(-c2ccc([N+](=O)[O-])cc2)c(/N=N/c2cccc(Cl)c2)c1O`, the IC50 [20] is reported as 3.29 µM (active), the IC50 [21] is reported as 51.5 µM (active) and the IC50 [22] is reported as 1.44 µM (active).
